Key:
MEF cells = assay: α-SMA expression by western blot in MEF cells treated with medium of auranofin-treated RAW264.7 cells; assay type: cell-based, mouse; settings: MEF cells treated with medium from treated RAW264.7 cells
Procedure: (§1) Sodium dodecyl sulfate-polyacrylamide gel electrophoresis (SDS-PAGE) was performed using a gel electrophoresis apparatus (Mighty Small SE 250, Hoefer Scientific Instruments, San Francisco, USA) according to the Laemmli's protocol. A dissolved fraction of cells was diluted in a sample dilution buffer [63 mM Tris (pH.6.8), 10% glycerol, 2% SDS, 0.0013% bromophenol blue, 5% β-mercaptoethanol) and electrophoresed in an electrode buffer (containing Tris (15 g), glycerin (72 g), and SDS (5 g) in 1L solution) using 8%- and 10% gels. Upon completion of gel electrophoresis, the gel was transferred onto a nitrocellulose membrane at 40 mAmps for 3 hours in a transfer buffer solution (25 mM Tris, 192 mM glycerin, 20% v/v methanol (pH 8.3)). Each of anti-TREM-2, anti-arginase-1, anti-iNOS, anti-α-SMA, and anti-collagen-1a1, as primary antibodies, was reacted on the nitrocellulose membrane, respectively, and horseradish peroxidase-conjugated goat anti-rabbit IgG and horseradish peroxidase-conjugated goat anti-mouse IgG, as secondary antibodies, were reacted thereonto for 1 hour, and the nitrocellulose membrane was allowed to develop colors using the ECL detection system (ECL chemiluminescence system, Amersham, Gaithesberg, Mass., USA). […] In each lane, the intensities were calculated using the AlphaEase™ version 5.5 software by subtracting background intensities. […]

[1] = test system: carbon tetrachloride-induced liver fibrosis; assay: Mouse model with carbon tetrachloride-induced liver fibrosis: fibrosis scores, α-SMA and collagen-1a1 in liver tissue; assay type: in vivo, C57BL/6J mice; settings: 5 times a week for 3 weeks, CCl4 mouse model
Procedure: A mouse model with carbon tetrachloride-induced liver fibrosis was prepared by repeatedly administering 0.5 ml/kg of carbon tetrachloride to C57BL/6J mice twice a week for three weeks.
Sodium dodecyl sulfate-polyacrylamide gel electrophoresis (SDS-PAGE) was performed using a gel electrophoresis apparatus (Mighty Small SE 250, Hoefer Scientific Instruments, San Francisco, USA) according to the Laemmli's protocol. A dissolved fraction of cells was diluted in a sample dilution buffer [63 mM Tris (pH.6.8), 10% glycerol, 2% SDS, 0.0013% bromophenol blue, 5% β-mercaptoethanol) and electrophoresed in an electrode buffer (containing Tris (15 g), glycerin (72 g), and SDS (5 g) in 1L solution) using 8%- and 10% gels. Upon completion of gel electrophoresis, the gel was transferred onto a nitrocellulose membrane at 40 mAmps for 3 hours in a transfer buffer solution (25 mM Tris, 192 mM glycerin, 20% v/v methanol (pH 8.3)). Each of anti-TREM-2, anti-arginase-1, anti-iNOS, anti-α-SMA, and anti-collagen-1a1, as primary antibodies, was reacted on the nitrocellulose membrane, respectively, and horseradish peroxidase-conjugated goat anti-rabbit IgG and horseradish peroxidase-conjugated goat anti-mouse IgG, as secondary antibodies, were reacted thereonto for 1 hour, and the nitrocellulose membrane was allowed to develop colors using the ECL detection system (ECL chemiluminescence system, Amersham, Gaithesberg, Mass., USA). […] In each lane, the intensities were calculated using the AlphaEase™ version 5.5 software by subtracting background intensities.
In the case of liver tissue, a certain amount of liver tissue was homogenized in a mortar along with liquid nitrogen and a cell lysis buffer, transferred into a new tube, and vortexed. The resultant was centrifuged at 14,000 rpm and 4° C. for 20 minutes and the middle layer was collected therefrom and the protein amount was quantitated by Bradford assay. After subjecting 30 μg of the protein to electrophoresis by SDS-PAGE, the change in the expression of α-SMA protein was measured by western blot analysis. […]

RAW264.7 cells [2] = assay: iNOS and TREM-2 expression by western blot in RAW264.7 cells under M1-type differentiation (LPS/IFN-γ); assay type: cell-based, mouse; settings: RAW264.7 cells treated with LPS/IFN-γ (M1-type condition)
Procedure: Sodium dodecyl sulfate-polyacrylamide gel electrophoresis (SDS-PAGE) was performed using a gel electrophoresis apparatus (Mighty Small SE 250, Hoefer Scientific Instruments, San Francisco, USA) according to the Laemmli's protocol. A dissolved fraction of cells was diluted in a sample dilution buffer [63 mM Tris (pH.6.8), 10% glycerol, 2% SDS, 0.0013% bromophenol blue, 5% β-mercaptoethanol) and electrophoresed in an electrode buffer (containing Tris (15 g), glycerin (72 g), and SDS (5 g) in 1L solution) using 8%- and 10% gels. Upon completion of gel electrophoresis, the gel was transferred onto a nitrocellulose membrane at 40 mAmps for 3 hours in a transfer buffer solution (25 mM Tris, 192 mM glycerin, 20% v/v methanol (pH 8.3)). Each of anti-TREM-2, anti-arginase-1, anti-iNOS, anti-α-SMA, and anti-collagen-1a1, as primary antibodies, was reacted on the nitrocellulose membrane, respectively, and horseradish peroxidase-conjugated goat anti-rabbit IgG and horseradish peroxidase-conjugated goat anti-mouse IgG, as secondary antibodies, were reacted thereonto for 1 hour, and the nitrocellulose membrane was allowed to develop colors using the ECL detection system (ECL chemiluminescence system, Amersham, Gaithesberg, Mass., USA). The identity of protein contents in a sample was confirmed using anti-β-actin antibody and anti-lamin A/C. With respect to the change in the amount of protein expression, the coloration intensity was induced using a densitometry and the scanning of the densitometry was performed using the Image Scan & Analysis System, Alpha-Innotech Co. (USA). In each lane, the intensities were calculated using the AlphaEase™ version 5.5 software by subtracting background intensities.
In order to confirm whether gold-containing agents can induce the transformation into M2-type macrophages, the RAW264.7 cells, which is a mouse macrophage cell line, were treated with lipopolysaccharide (LPS)/interferon-gamma (IFN-γ), followed by treatment with auranofin in a condition for differentiation into M1-type macrophages, and the increase/decrease in expressions of iNOS and TREM-2 was confirmed by western blot analysis.
First, the RAW264.7 cells, which is a mouse macrophage cell line, were respectively treated with sodium aurothiomalate and aurothioglucose, which are analogous to auranofin, in a condition for differentiating the cells into M1-type macrophages by treating with lipopolysaccharide (LPS)/interferon-gamma (IFN-gamma), and the increase/decrease in expression of iNOS was confirmed by western blot analysis.

RAW264.7 cells [3] = assay: Arginase-1 expression by western blot in RAW264.7 cells under M2-type differentiation (IL-4); assay type: cell-based, mouse; settings: RAW264.7 cells treated with IL-4 (M2-type condition)
Procedure: as §1

CC[PH](CC)(CC)[Au][S][C@@H]1O[C@H](COC(C)=O)[C@@H](OC(C)=O)[C@H](OC(C)=O)[C@H]1OC(C)=O [auranofin, 2,3,4,6-tetra-O-acetyl-1-thio-β-D-glucopyranosato-S-[triethylphosphine] gold]
expression of α-SMA (MEF cells): inhibited | liver fibrosis scores ([1]; 10 mg/kg oral, H&E staining): significantly lowered | expression of collagen-1a1 in liver tissue ([1]; oral 1, 3 and 10 mg/kg): apparently reduced | expression of α-SMA in liver tissue ([1]; oral 1, 3 and 10 mg/kg): apparently reduced | expression of TREM-2 (RAW264.7 cells [2]): increasing | expression of iNOS (RAW264.7 cells [2]): inhibited

OC[C@H]1O[C@H]([S-])[C@H](O)[C@@H](O)[C@@H]1O.[Au+] [aurothioglucose]
expression of arginase-1 (RAW264.7 cells [3]): increased | expression of iNOS (RAW264.7 cells [2]): inhibited

O=C([O-])CC([S-])C(=O)[O-].[Au+].[Na+].[Na+] (stereo not shown) [sodium aurothiomalate]
expression of arginase-1 (RAW264.7 cells [3]): increased | expression of iNOS (RAW264.7 cells [2]): inhibited
